Test results taken from ChEMBL document CHEMBL1201862, “PubChem BioAssay data set” (2004).
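All cell lines were grown in 96-well plates and treated with compound for 48 hours. At the GI50, growth is halved.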 The source made the active and inactive calls. Cut-off read from the data, not from the text of the source: active = GI50 up to about 1.1 µM and inactive = higher.

Experiments:
Assay in all cases: inhibition of tumour cell growth, NCI panel, 48 h
[1] = system: DMS-114
[2] = system: HCT-15
[3] = system: SW-620
[4] = system: K562
[5] = system: COLO 205
[6] = system: NCI-H460
[7] = system: UACC-62
[8] = system: EKVX
[9] = system: SNB-75
[10] = system: IGROV-1
[11] = system: OVCAR-5
[12] = system: TK-10
[13] = system: 786-0
[14] = system: UO-31
[15] = system: SR
[16] = system: HL-60
[17] = system: OVCAR-8
[18] = system: SF-268
[19] = system: OVCAR-3
[20] = system: HOP-92
[21] = system: SNB-19
[22] = system: SK-MEL-28
[23] = system: HT-29
[24] = system: CCRF-CEM
[25] = system: SK-OV-3
[26] = system: SK-MEL-5
[27] = system: M14
[28] = system: HCC 2998
[29] = system: DMS-273
[30] = system: SF-295
[31] = system: SNB-78
[32] = system: M19-MEL
[33] = system: NCI-H522
[34] = system: A498
[35] = system: NCI-H226
[36] = system: A549
[37] = system: UACC-257
[38] = system: SN12C
[39] = system: ACHN
[40] = system: MOLT-4
[41] = system: HOP-62
[42] = system: KM12
[43] = system: LXFL 529
[44] = system: OVCAR-4
[45] = system: KM-20L2
[46] = system: DLD-1
[47] = system: SF-539
[48] = system: U-251
[49] = system: NCI-H23
[50] = system: Malme-3M
[51] = system: HCT-116
[52] = system: HOP-18

In the case of `COC(=O)C12C3C4C1C1C2C3C41C(=O)N(C(C)C)C(C)C` (stereo unspecified), the GI50 [1] is reported as > 100 µM (inactive), the GI50 [2] is reported as greater than 100 µM and the GI50 [3] is reported as > 100 µM (inactive). The GI50 [4] was > 100 µM (inactive), the GI50 [5] was > 100 µM (inactive) and the GI50 [6] was > 100 µM (inactive). The GI50 [7] was > 100 µM (inactive), the GI50 [8] was > 100 µM (inactive) and the GI50 [9] was 50.2 µM (inactive). The GI50 [10] was > 100 µM (inactive), the GI50 [11] was > 100 µM (inactive) and the GI50 [12] was > 100 µM (inactive). For the same compound, the GI50 [13] was > 100 µM (inactive), the GI50 [14] was > 100 µM (inactive) and the GI50 [15] was > 100 µM (inactive). For the same compound, the GI50 [16] was > 100 µM (inactive), the GI50 [17] was > 100 µM (inactive) and the GI50 [18] was > 100 µM (inactive). The GI50 [19] was > 100 µM (inactive), the GI50 [20] was > 100 µM (inactive) and the GI50 [21] was > 100 µM (inactive). The GI50 [22] was > 100 µM (inactive), the GI50 [23] was > 100 µM (inactive) and the GI50 [24] was > 100 µM (inactive). For the same compound, the GI50 [25] was > 100 µM (inactive), the GI50 [26] was > 100 µM (inactive) and the GI50 [27] was > 100 µM (inactive). The GI50 [28] was > 100 µM (inactive), the GI50 [29] was > 100 µM (inactive) and the GI50 [30] was > 100 µM (inactive). For the same compound, the GI50 [31] was > 100 µM (inactive), the GI50 [32] was > 100 µM (inactive) and the GI50 [33] was > 100 µM (inactive). For the same compound, the GI50 [34] was > 100 µM (inactive), the GI50 [35] was > 100 µM (inactive) and the GI50 [36] was > 100 µM (inactive). For the same compound, the GI50 [37] was > 100 µM (inactive), the GI50 [38] was > 100 µM (inactive) and the GI50 [39] was > 100 µM (inactive). For the same compound, the GI50 [40] was > 100 µM (inactive), the GI50 [41] was > 100 µM (inactive) and the GI50 [42] was > 100 µM (inactive). The GI50 [43] was > 100 µM (inactive), the GI50 [44] was > 100 µM (inactive) and the GI50 [45] was > 100 µM (inactive). For the same compound, the GI50 [46] was > 100 µM (inactive), the GI50 [47] was > 100 µM (inactive) and the GI50 [48] was > 100 µM (inactive). The GI50 [49] was > 100 µM (inactive), the GI50 [50] was > 100 µM (inactive) and the GI50 [51] was > 100 µM (inactive).

`COc1ccc(/C=N/NC(=O)c2sc(=S)n(-c3ccccc3)c2N)cc1` was tested, and the GI50 [3] was > 100 µM (inactive), the GI50 [4] was 1.48 µM (inactive) and the GI50 [5] was > 100 µM (inactive). The GI50 [6] was 6.04 µM (inactive), the GI50 [7] was 89.1 µM (inactive) and the GI50 [9] was 1.6 µM (inactive). For the same compound, the GI50 [10] was > 100 µM (inactive), the GI50 [11] was > 100 µM (inactive) and the GI50 [12] was 7.14 µM (inactive). For the same compound, the GI50 [14] was > 100 µM (inactive), the GI50 [15] was > 100 µM (inactive) and the GI50 [16] was > 100 µM (inactive). The GI50 [17] was 44.7 µM (inactive), the GI50 [18] was 21.4 µM (inactive) and the GI50 [19] was 83.9 µM (inactive). For the same compound, the GI50 [20] was 9.51 µM (inactive), the GI50 [21] was 28.1 µM (inactive) and the GI50 [22] was 33.1 µM (inactive). For the same compound, the GI50 [23] was 73.8 µM (inactive), the GI50 [24] was > 100 µM (inactive) and the GI50 [25] was 11.2 µM (inactive). For the same compound, the GI50 [52] was 39.4 µM (inactive), the GI50 [26] was 71.4 µM (inactive) and the GI50 [28] was 73.5 µM (inactive). The GI50 [30] was 19.8 µM (inactive), the GI50 [32] was > 100 µM (inactive) and the GI50 [33] was 42.1 µM (inactive). For the same compound, the GI50 [35] was > 100 µM (inactive), the GI50 [36] was > 100 µM (inactive) and the GI50 [37] was > 100 µM (inactive). For the same compound, the GI50 [39] was 20.7 µM (inactive), the GI50 [40] was > 100 µM (inactive) and the GI50 [41] was 22.2 µM (inactive). For the same compound, the GI50 [42] was 7.85 µM (inactive), the GI50 [43] was 51.2 µM (inactive) and the GI50 [46] was > 100 µM (inactive). The GI50 [47] was 6.92 µM (inactive), the GI50 [48] was 66.2 µM (inactive) and the GI50 [49] was > 100 µM (inactive). The GI50 [51] was 91.6 µM (inactive).
